# Assay results published in patent publication EP3352763B1 (priority 2015, dated 2017).
# Tested on: A/Mississippi/3/2001/Variante, H1N1
# Format: cell-based, Influenzaviren
smiles,measurement,value
"O=C(/C=C/c1ccc(O)cc1)OC[C@H]1O[C@@H](Oc2c(-c3ccc(O)cc3)oc3cc(O)cc(O)c3c2=O)[C@H](O)[C@@H](O)[C@@H]1O [Tilirosid, Kaempferol-3-(6""-trans-p-coumaroyl)glucosid]",Selektivitätsindex (S.I.),1.047
same,antivirale Wirkung,antiviral wirkt
